# Values quoted from earlier work, collected in patent US6376534B1, “Compounds useful in pain management” (Astrazeneca Canada Inc., priority 1998, dated 2002).
# How the values were obtained:
# δ receptor = δ receptor (Homo sapiens, UniProt P41143); conditions: background statement
# [1] = background statement
# Sequence of δ receptor (P41143 whole entry): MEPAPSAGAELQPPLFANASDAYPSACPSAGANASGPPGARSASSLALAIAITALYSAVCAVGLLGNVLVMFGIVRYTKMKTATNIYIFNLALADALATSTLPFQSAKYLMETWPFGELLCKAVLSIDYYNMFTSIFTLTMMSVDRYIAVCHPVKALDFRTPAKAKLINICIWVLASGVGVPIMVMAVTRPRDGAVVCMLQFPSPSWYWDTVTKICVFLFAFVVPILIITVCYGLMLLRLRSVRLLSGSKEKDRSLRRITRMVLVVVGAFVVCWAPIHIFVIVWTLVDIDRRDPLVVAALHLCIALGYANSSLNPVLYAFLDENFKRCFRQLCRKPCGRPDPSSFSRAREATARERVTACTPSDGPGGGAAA
structure (smiles),measurement,setting,value
Oc1ccc2c3c1O[C@H]1c4[nH]c5ccccc5c4C[C@@]4(O)[C@@H](C2)N(CC2CC2)CC[C@]314 [naltrindole],selectivity for the δ receptor vs. μ receptor binding,δ receptor,< 10 fold
same,analgesic activity,[1],no analgesic activity
